In ChEMBL document CHEMBL1201862, “PubChem BioAssay data set” (2004):
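Each compound was tested at five concentrations against cells in 96-well plates for 48 hours. At the GI50, growth is halved.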 Calls of active or inactive are those of the source. Cut-off read from the data, not from the text of the source: active = GI50 up to about 1.1 µM and inactive = higher.

What was measured:
Experiment in all cases: DTP human tumour cell line panel, 48 h
OVCAR-4 = test system: OVCAR-4
HCT-116 = test system: HCT-116
UO-31 = test system: UO-31
SK-MEL-28 = test system: SK-MEL-28
OVCAR-8 = test system: OVCAR-8
HL-60 = test system: HL-60
UACC-62 = test system: UACC-62
NCI-H226 = test system: NCI-H226
HT-29 = test system: HT-29
COLO 205 = test system: COLO 205
NCI-H460 = test system: NCI-H460
A549 = test system: A549
M14 = test system: M14
EKVX = test system: EKVX
Malme-3M = test system: Malme-3M
KM-20L2 = test system: KM-20L2
U-251 = test system: U-251
DMS-273 = test system: DMS-273
A498 = test system: A498
SNB-19 = test system: SNB-19
SK-MEL-5 = test system: SK-MEL-5
OVCAR-3 = test system: OVCAR-3
DLD-1 = test system: DLD-1
K562 = test system: K562
HOP-62 = test system: HOP-62
ACHN = test system: ACHN
SF-295 = test system: SF-295
NCI-H23 = test system: NCI-H23
786-0 = test system: 786-0
M19-MEL = test system: M19-MEL
SN12C = test system: SN12C
SNB-75 = test system: SNB-75
LOX IMVI = test system: LOX IMVI
SF-268 = test system: SF-268
SK-MEL-2 = test system: SK-MEL-2
DMS-114 = test system: DMS-114
TK-10 = test system: TK-10
SF-539 = test system: SF-539
RXF 393 = test system: RXF 393
HCC 2998 = test system: HCC 2998
CCRF-CEM = test system: CCRF-CEM
RXF 631 = test system: RXF 631
MOLT-4 = test system: MOLT-4
LXFL 529 = test system: LXFL 529
UACC-257 = test system: UACC-257
SR = test system: SR
RPMI-8226 = test system: RPMI-8226
HCT-15 = test system: HCT-15
IGROV-1 = test system: IGROV-1
SW-620 = test system: SW-620
XF498 = test system: XF498
KM12 = test system: KM12
HOP-92 = test system: HOP-92
OVCAR-5 = test system: OVCAR-5
CAKI-1 = test system: CAKI-1
NCI-H522 = test system: NCI-H522
SNB-78 = test system: SNB-78
SK-OV-3 = test system: SK-OV-3

Cc1cc(=O)oc2cc(OCCCOc3ccc4c(C)cc(=O)oc4c3)ccc12
GI50 (OVCAR-4): > 100 µM (inactive)
GI50 (HCT-116): > 100 µM (inactive)
GI50 (UO-31): > 100 µM (inactive)
GI50 (SK-MEL-28): > 100 µM (inactive)
GI50 (OVCAR-8): > 100 µM (inactive)
GI50 (HL-60): > 100 µM (inactive)
GI50 (UACC-62): > 100 µM (inactive)
GI50 (NCI-H226): > 100 µM (inactive)
GI50 (HT-29): > 100 µM (inactive)
GI50 (COLO 205): > 100 µM (inactive)
GI50 (NCI-H460): > 100 µM (inactive)
GI50 (A549): > 100 µM (inactive)
GI50 (M14): > 100 µM (inactive)
GI50 (EKVX): > 100 µM (inactive)
GI50 (Malme-3M): > 100 µM (inactive)
GI50 (KM-20L2): > 100 µM (inactive)
GI50 (U-251): > 100 µM (inactive)
GI50 (DMS-273): 91.4 µM (inactive)
GI50 (A498): > 100 µM (inactive)
GI50 (SNB-19): 57.9 µM (inactive)
GI50 (SK-MEL-5): > 100 µM (inactive)
GI50 (OVCAR-3): > 100 µM (inactive)
GI50 (DLD-1): > 100 µM (inactive)
GI50 (K562): > 100 µM (inactive)
GI50 (HOP-62): 63.8 µM (inactive)
GI50 (ACHN): > 100 µM (inactive)
GI50 (SF-295): > 100 µM (inactive)
GI50 (NCI-H23): > 100 µM (inactive)
GI50 (786-0): 59.8 µM (inactive)
GI50 (M19-MEL): > 100 µM (inactive)
GI50 (SN12C): > 100 µM (inactive)
GI50 (SNB-75): 38.6 µM (inactive)
GI50 (LOX IMVI): > 100 µM (inactive)
GI50 (SF-268): > 100 µM (inactive)
GI50 (SK-MEL-2): > 100 µM (inactive)
GI50 (DMS-114): > 100 µM (inactive)
GI50 (TK-10): > 100 µM (inactive)
GI50 (SF-539): > 100 µM (inactive)
GI50 (RXF 393): > 100 µM (inactive)
GI50 (HCC 2998): > 100 µM (inactive)
GI50 (CCRF-CEM): > 100 µM (inactive)
GI50 (RXF 631): > 100 µM (inactive)
GI50 (MOLT-4): > 100 µM (inactive)
GI50 (LXFL 529): > 100 µM (inactive)
GI50 (UACC-257): > 100 µM (inactive)
GI50 (SR): > 100 µM (inactive)
GI50 (RPMI-8226): > 100 µM (inactive)
GI50 (HCT-15): > 100 µM
GI50 (IGROV-1): > 100 µM (inactive)
GI50 (SW-620): > 100 µM (inactive)
GI50 (XF498): 31.3 µM (inactive)

CCOC(=O)C(=O)Nc1c(N(CC)CC)n2ccccc2nc1=O
GI50 (HCT-116): > 100 µM (inactive)
GI50 (UO-31): > 100 µM (inactive)
GI50 (KM12): > 100 µM (inactive)
GI50 (OVCAR-8): > 100 µM (inactive)
GI50 (UACC-62): > 100 µM (inactive)
GI50 (HOP-92): > 100 µM (inactive)
GI50 (NCI-H226): > 100 µM (inactive)
GI50 (HT-29): > 100 µM (inactive)
GI50 (COLO 205): > 100 µM (inactive)
GI50 (NCI-H460): > 100 µM (inactive)
GI50 (A549): > 100 µM (inactive)
GI50 (M14): > 100 µM (inactive)
GI50 (EKVX): > 100 µM (inactive)
GI50 (Malme-3M): > 100 µM (inactive)
GI50 (KM-20L2): > 100 µM (inactive)
GI50 (U-251): > 100 µM (inactive)
GI50 (DMS-273): > 100 µM (inactive)
GI50 (A498): > 100 µM (inactive)
GI50 (SNB-19): > 100 µM (inactive)
GI50 (SK-MEL-5): > 100 µM (inactive)
GI50 (OVCAR-3): > 100 µM (inactive)
GI50 (DLD-1): > 100 µM (inactive)
GI50 (K562): > 100 µM (inactive)
GI50 (HOP-62): > 100 µM (inactive)
GI50 (OVCAR-5): > 100 µM (inactive)
GI50 (ACHN): > 100 µM (inactive)
GI50 (NCI-H23): > 100 µM (inactive)
GI50 (786-0): > 100 µM (inactive)
GI50 (M19-MEL): > 100 µM (inactive)
GI50 (SN12C): > 100 µM (inactive)
GI50 (SNB-75): > 100 µM (inactive)
GI50 (CAKI-1): > 100 µM (inactive)
GI50 (SF-268): > 100 µM (inactive)
GI50 (SK-MEL-2): > 100 µM (inactive)
GI50 (DMS-114): > 100 µM (inactive)
GI50 (NCI-H522): > 100 µM (inactive)
GI50 (SF-539): > 100 µM (inactive)
GI50 (CCRF-CEM): > 100 µM (inactive)
GI50 (RXF 631): > 100 µM (inactive)
GI50 (MOLT-4): > 100 µM (inactive)
GI50 (LXFL 529): > 100 µM (inactive)
GI50 (SNB-78): > 100 µM (inactive)
GI50 (SR): > 100 µM (inactive)
GI50 (RPMI-8226): > 100 µM (inactive)
GI50 (HCT-15): > 100 µM
GI50 (IGROV-1): > 100 µM (inactive)
GI50 (SK-OV-3): > 100 µM (inactive)
GI50 (SW-620): > 100 µM (inactive)
GI50 (XF498): > 100 µM (inactive)
